Data reported in article PMC1624820, “Inhibition of secreted phospholipase A2 by neuron survival and anti-inflammatory peptide CHEC-9” (Journal of Neuroinflammation, 2006).
Entries after “also recorded” stand apart in the source; their conditions may differ. Read-outs that look alike come from different tables or passages of the source.

Key:
sPLA2 [1] = tested on: sPLA2
Method: (§1) Enzyme assays were conducted at ambient temperature (22–25°) using a Victor 3 fluorescent reader (Perkin Elmer, Nutley NJ). The substrate was 1-Palmitoyl-2-Pyrenedecanoyl Phosphatidylcholine ("10-pyrene", Caymen Chemical, Ann Arbor MI) a substrate for all calcium dependent PLA2s with the exception of cPLA2 and PAF-AH. The substrate (supplied in chloroform) was dried under a nitrogen stream, quickly dissolved in ethanol, and stored at -20° prior to use. Substrate solutions were prepared in reaction buffer consisting of 50 mM tris (pH = 7.4), 0.1 M NaCl, 2 mM CaCl2, 0.25% fatty acid-free albumin (Sigma) and the CHEC-9 peptide at the indicated concentrations. CHEC-9 ([…]) was synthesized by Celtek, (Nashville, TN), purified and cross-linked as described previously, and aliquots stored in tris buffer or DMEM vehicles at -80°. The 10-pyrene substrate forms phospholipids vesicles in aqueous solutions [13], and upon hydrolysis, releases 10-pyrenyldecanoic acid. This product is fluorescent in the presence of albumin and was measured at 350 nm excitation, 405 nm emission. Plasma samples were 20% final concentration in the reaction mixture, and all enzyme reactions were initiated with the addition of the substrate solution to the sPLA2 containing samples. Kinetic parameters including the properties of CHEC-9 were determined by measuring the initial velocities (Vo) of enzyme reactions (within 2 minutes of initiation). […] This rate is proportional to the concentration of active enzyme in the plasma if product formation during this period is linear with respect to time (see Fig. 6). In most experiments, relative fluorescent units (RFU) were converted to product concentration using a pyrenyldecanoic acid standard curve (Molecular Probes, Eugene, OR). […] Individual reactions were carried out in duplicate or triplicate and kinetic curves were produced using 5–6 substrate concentrations, with or without peptide, reacted simultaneously. […] Km and Vmax and r^2 were determined with regression software (Prism) from Graphpad (San Diego, CA).
(§2) The characteristics of CHEC-9 inhibition were determined using both classical characterization of inhibitor types, i.e., the direction of changes in Km and Vmax, and more recent reports that derive consistent relationships between the extent of enzyme inhibition and substrate concentration. […] We have repeated, combined, and rearranged some of their equations below in order to show the calculations used in the present experiments.

cerebral cortex lesions = tested on: cerebral cortex lesions; parameters: method as in PMID 15684658; settings: rat, ref [6], cited from earlier work
sPLA2 group I [2] = assay: 10-pyrene fluorescence enzyme assay, sPLA2 group I (Lineweaver-Burke / Michaelis-Menton); format: biochemical, Naja mossambica; settings: for Km: without inhibitor 18.80; for Km / Vmax: 5 nM sPLA2, 10-pyrene 2-7 μM, nonlinear regression of Vo; for Vmax: without inhibitor 21.67; for reduction of Vo with varied enzyme concentration: sPLA2 2, 6, 10 nM, CHEC-9 0.1, 1, 10 nM
Method: (§3) Purified secreted phospholipase A2 group I from the venom of the Mozambique cobra (Naja mossambica) was obtained from Sigma. Blood was obtained from the trunk of 20 female Sprague Dawley rats (200–250 g) after decapitation, and by venipunture of 14 healthy adult humans of both sexes. Blood samples from 8 additional rats were collected following subcutaneous injections of 100 μg CHEC-9 or DMEM vehicle. These rats were placed in a standard rat restrainer during the collection period and the samples obtained via a tail nick. All specific procedures of this study were approved by both the Institutional Animal Care and Use Committee and by Institutional Review Board of Drexel University College of Medicine. Blood samples were treated with citrate-phosphate-dextrose anticoagulant (1:10, Sigma), and plasma prepared by centrifugation, before freezing at -80° until used in the enzyme assays. For the ex vivo studies, individual plasma samples were pooled from 3–7 rats or 3–5 humans.
as §1, §2
(§4) KiNR is the apparent inhibition constant based on inhibition degree and is independent of inhibitor classification. This value varies predictably with substrate concentration for different inhibitor types. It is defined as: […]

Human Plasma sPLA2 = assay: 10-pyrene fluorescence enzyme assay, human plasma sPLA2 (ex vivo); format: biochemical; settings: for Vmax: without inhibitor 2.07; for Km: without inhibitor 66.52
Method: as §3, §1, §2, §4

sPLA2 group I [3] = assay: native polyacrylamide gel electrophoresis, enzyme migration; parameters: species or system Naja mossambica; settings: for sPLA2 band on native gel, with peptide and substrate: 26 μM sPLA2, 40 μM CHEC-9, 560 μM substrate, 2 mM CaCl2, pH 7.4, room temperature 30 min, repeated four times
Method: Polyacrylamide gradient gels (5–15%) were run with and without SDS or reducing agents using sPLA2 group I alone or after mixing the enzyme with different combinations of the components of the reaction mixture (or their solvents). Samples prepared for the native gels were 50 μl containing 26 μM sPLA2, 40 μM CHEC-9, 560 μM 1-Palmitoyl-2-Pyrenedecanoyl Phosphatidylcholine (substrate), and 2 mM CaCl2 in 20 mM tris buffer (pH = 7.4), incubated together at room temperature for 30 min. After incubation, the samples were evaporated to 20 μl. The samples were then mixed with sample buffer containing only glycerol and bromophenol blue in 0.1 M tris (pH = 6.8) and loaded onto the gels. Following electrophoresis, the gels were washed, fixed, and stained with silver reagent according to conventional methods. The native gel experiment, using different reactant combinations run side by side (Fig. 3), was repeated four times with the same result.

sPLA2 [4] = settings: 100 μg CHEC-9 s.c.
Method: as §3, with “For the ex vivo studies, individual plasma samples were pooled from 3–7 rats or 3–5 humans.” left out
Enzyme assays were conducted at ambient temperature (22–25°) using a Victor 3 fluorescent reader (Perkin Elmer, Nutley NJ). […] This product is fluorescent in the presence of albumin and was measured at 350 nm excitation, 405 nm emission. […] Kinetic parameters including the properties of CHEC-9 were determined by measuring the initial velocities (Vo) of enzyme reactions (within 2 minutes of initiation). […] Km and Vmax and r^2 were determined with regression software (Prism) from Graphpad (San Diego, CA).

rat plasma sPLA2 = assay: 10-pyrene fluorescence enzyme assay, rat plasma sPLA2 (ex vivo); format: biochemical, rat (Sprague Dawley)
Method: as §3
Enzyme assays were conducted at ambient temperature (22–25°) using a Victor 3 fluorescent reader (Perkin Elmer, Nutley NJ). The substrate was 1-Palmitoyl-2-Pyrenedecanoyl Phosphatidylcholine ("10-pyrene", Caymen Chemical, Ann Arbor MI) a substrate for all calcium dependent PLA2s with the exception of cPLA2 and PAF-AH. The substrate (supplied in chloroform) was dried under a nitrogen stream, quickly dissolved in ethanol, and stored at -20° prior to use. Substrate solutions were prepared in reaction buffer consisting of 50 mM tris (pH = 7.4), 0.1 M NaCl, 2 mM CaCl2, 0.25% fatty acid-free albumin (Sigma) and the CHEC-9 peptide at the indicated concentrations. CHEC-9 ([…]) was synthesized by Celtek, (Nashville, TN), purified and cross-linked as described previously, and aliquots stored in tris buffer or DMEM vehicles at -80°. The 10-pyrene substrate forms phospholipids vesicles in aqueous solutions [13], and upon hydrolysis, releases 10-pyrenyldecanoic acid. This product is fluorescent in the presence of albumin and was measured at 350 nm excitation, 405 nm emission. Plasma samples were 20% final concentration in the reaction mixture, and all enzyme reactions were initiated with the addition of the substrate solution to the sPLA2 containing samples. Kinetic parameters including the properties of CHEC-9 were determined by measuring the initial velocities (Vo) of enzyme reactions (within 2 minutes of initiation). […] Km and Vmax and r^2 were determined with regression software (Prism) from Graphpad (San Diego, CA).
The characteristics of CHEC-9 inhibition were determined using both classical characterization of inhibitor types, i.e., the direction of changes in Km and Vmax, and more recent reports that derive consistent relationships between the extent of enzyme inhibition and substrate concentration. […]

[5] = CHEC-9 10.0 nM, 20% plasma, 10-pyrene 5–30 μM, pH 7.4, 22–25°
[6] = CHEC-9 50.0 nM, 20% plasma, 10-pyrene 5–30 μM, pH 7.4, 22–25°

CHEASAAQC [CHEC-9, nonapeptide CHEC-9 (…), internal fragment of DSEP/Dermcidin/PIF, synthesized by Celtek, purified and cross-linked]
specificity (sPLA2 [1]; plasma and venom-derived sPLA2): broad specificity | Ki (sPLA2 [1]; read-out: Ki (individual experiments), individual experiments repeated 5 or more times, pH 7.4, 22–25°): < 100 nM | Ki (sPLA2 [1]; read-out: Ki values (all cases), venom-derived sPLA2 group I and plasma of rats and humans): < 100 nM | type of inhibition (all enzyme sources) (sPLA2 [1]; venom-derived sPLA2 group I, plasma of rats and humans): uncompetitive (or anti-competitive) enzyme inhibitor | duration of anti-inflammatory and neuron survival effects (cerebral cortex lesions; a subcutaneous injection after cerebral cortex lesions): at least 4 days | anti-inflammatory and neuron survival effects (cerebral cortex lesions; subcutaneous injection after cerebral cortex lesions): inhibit neuron death and aspects of the inflammatory response; also recorded: anti-inflammatory and neuron survival effects | KiNR (apparent inhibition constant) vs substrate concentration (sPLA2 group I [2]; 10-pyrene 2-7 μM, 5 nM sPLA2, CHEC-9 0.1, 1.0, 10 nM): varied inversely with the substrate concentration; also recorded: overall decline in this value with increasing substrate concentration for each peptide concentration | Km (sPLA2 group I [2]; CHEC-9 0.1 nM, pH 7.4, 22–25°): 10.8 µM | Vmax (sPLA2 group I [2]; CHEC-9 0.1 nM, pH 7.4, 22–25°): 11.54 nM/min/ng | Km (sPLA2 group I [2]; CHEC-9 1.0 nM, pH 7.4, 22–25°): 3.4 µM | Vmax (sPLA2 group I [2]; CHEC-9 1.0 nM, pH 7.4, 22–25°): 5.56 nM/min/ng | Km (sPLA2 group I [2]; CHEC-9 10.0 nM, pH 7.4, 22–25°): 2.26 µM | Vmax (sPLA2 group I [2]; CHEC-9 10.0 nM, pH 7.4, 22–25°): 4.04 nM/min/ng | change of Vmax and Km (sPLA2 group I [2]; CHEC-9 0.1-10 nM): reduced both the Vmax and Km of the enzyme reaction | effect of CHEC-9 below 10 nM on Vo at 2 nM or 6 nM sPLA2 (sPLA2 group I [2]; CHEC-9 lower than 10 nM, 2 nM or 6 nM sPLA2, 6 μM 10-pyrene): minimally effective or ineffective at 2 nM or 6 nM sPLA2 | effect of CHEC-9 below 10 nM on Vo at 10 nM sPLA2 (sPLA2 group I [2]; CHEC-9 lower than 10 nM, 10 nM sPLA2, 6 μM 10-pyrene): produced consistent reductions in reaction velocity when used with 10 nM enzyme | Ki (sPLA2 group I [2]; Group I sPLA2, uncompetitive, Ki = KiNR/(1+(Km/[S])), pH 7.4, 22–25°): 4.02 ± 1.56 nM | effect on Vo at lowest substrate concentrations (sPLA2 group I [2]; lowest substrate concentrations): minimally effective, ineffective, or even potentiated Vo | velocity of the enzyme reaction (Vo) (sPLA2 group I [2]; nanomolar CHEC-9, substrate one-half Km or less): reduced by nanomolar concentrations of CHEC-9 | reduction of Vo with varied enzyme concentration (sPLA2 group I [2]; 6 μM 10-pyrene): maximal reductions of Vo occurred at 10 nM sPLA2 | reduction of Vo with varied enzyme concentration (sPLA2 group I [2]; 6 μM 10-pyrene, listed as peptide): most effective at the highest concentration of sPLA2, and showed declining efficacy at the lower enzyme concentrations | type of inhibition, sPLA2 group I (sPLA2 group I [2]; substrate at one-half Km or less): most consistent with an uncompetitive (or anti-competitive) inhibitor of sPLA2 group I | type of inhibition, human plasma (Human Plasma sPLA2; 20% plasma, 10-pyrene 5–30 μM): consistent with the properties of an uncompetitive inhibitor | Vmax (Human Plasma sPLA2; [5]): 1.42 μM/min/ml | Km (Human Plasma sPLA2; [5]): 40.8 µM | Vmax (Human Plasma sPLA2; [6]): 0.973 μM/min/ml | Km (Human Plasma sPLA2; [6]): 24.1 µM | change of Km and Vmax, human plasma (Human Plasma sPLA2; CHEC-9 10, 50 nM, 20% plasma): Km and Vmax of plasma samples were both reduced by CHEC-9 | Ki (Human Plasma sPLA2; Human plasma sPLA2, 20% plasma, uncompetitive, Ki = KiNR/(1+(Km/[S])), pH 7.4, 22–25°): 62 ± 13.2 nM | effect on enzyme activity at lowest substrate concentrations, human plasma (Human Plasma sPLA2; CHEC-9 10, 50 nM): less effective or even exaggerated the reaction at the lower substrate concentrations | effect on enzyme activity at lowest substrate concentrations, human plasma (Human Plasma sPLA2; CHEC-9 10, 50 nM, listed as peptide): exaggerated enzyme activity in human plasma at the lowest substrate concentrations used | sPLA2 band on native gel, with peptide and substrate (sPLA2 group I [3]): absent or at least dramatically reduced | sPLA2 band on native gel, with peptide and substrate (sPLA2 group I [3]; listed as peptide): disappeared or was markedly attenuated | sPLA2 band on native gel, peptide alone (sPLA2 group I [3]; 26 μM sPLA2, 40 μM CHEC-9, no substrate, pH 7.4, room temperature 30 min): The same band appeared | level of active sPLA2 vs pre-injection (sPLA2 [4]; restrained rats, n = 4, on average): holding the level of active enzyme, on average, near pre-injection values | significance of sPLA2 reduction vs vehicle (sPLA2 [4]; p < 0.05 by Mann Whitney test, n = 4 rats per group): significant differences at 30 and 60 minutes | inhibition with increased substrate concentrations, rat plasma (rat plasma sPLA2; 25 nM CHEC-9, 20% plasma, increased substrate, mean of three reactions): this delay of the inhibition is not detected | inhibition at very low substrate concentrations, rat plasma (rat plasma sPLA2; 25 nM CHEC-9, 20% plasma, very low substrate, mean of three reactions): delayed inhibition at the lower substrate concentrations | inhibition at lower substrate concentrations, rat plasma (rat plasma sPLA2; lower substrate concentrations, product formation relatively stable): inhibition by CHEC-9 was readily observed | effect at high substrate concentrations (substrate inhibition), rat plasma (rat plasma sPLA2; substrate > 25 μM): would sometimes reverse this inhibitory effect
